Calls of active or inactive are those of the source.
How the values were obtained:
Candida albicans [1] = experiment: Antifungal activity against Candida albicans clinical isolate 2 assessed as fungal growth inhibition at <= […] uM measured after 48 hrs by resazurin assay; type: functional, organism-based
[2] = Microsomal stability in CD-1 mouse liver microsomes assessed as parent compound remaining at 1 uM measured at 60 mins by LC-MS/MS analysis; type: ADME, Microsome; conditions: read-out: Stability
Cryptococcus neoformans [3] = experiment: Antifungal activity against Cryptococcus neoformans H99 assessed as fungal growth inhibition at <= […] uM measured after 48 hrs by resazurin assay; type: functional, organism-based
[4] = Half life in CD-1 mouse liver microsomes at 1 uM measured up to 120 mins by LC-MS/MS analysis
Cryptococcus neoformans [5] = experiment: Antifungal activity against Cryptococcus neoformans H99 assessed as fungal growth inhibition at < […] uM measured after 48 hrs by resazurin assay; type: functional, organism-based
Candida albicans [6] = experiment: Fungicidal activity against Candida albicans clinical isolate 2 incubated for 48 hrs in presence of fluconazole followed by replating on YDP agar plate and measured after 24 hrs; type: functional, organism-based
[7] = Displacement of Cy3-labeled geldanamycin from HSP90 in Candida albicans clinical isolate 2 cell lysate measured after […] by fluorescence polarization assay; type: subcellular
Candida albicans [8] = experiment: Antifungal activity against Candida albicans clinical isolate 2 assessed as fungal growth inhibition measured after 48 hrs in presence of fluconazole by resazurin assay; type: functional; conditions: clinical isolate 2, 48 h
[9] = Selectivity index, ratio of kd for binding affinity to recombinant human Hsp90 NBD expressed in Escherichia coli Rosetta2 to Kd for binding affinity to recombinant Candida albicans clinical isolate 2 HSP90 NBD (E7 to K218 residues) expressed in Escherichia coli Rosetta2

Q: With `Cn1nc(C2CCCCC2)cc1Nc1cc(O)cc(O)c1C(=O)N1Cc2cn[nH]c2C1` as the compound, how does the Activity (Candida albicans [1]) read?
A: Active

Q: And the remaining at 1 h, 1 µM [2]?
A: 0.06%

Q: What about the Activity (Cryptococcus neoformans [3]) of the same compound?
A: Active

Q: What about the half-life at 2 h, 1 µM [4] of the same compound?
A: 2.74 min

Q: For `Cc1ccccc1-c1cc(Nc2cc(O)cc(O)c2C(=O)N2Cc3ccccc3C2)n(C)n1`, which Activity (Cryptococcus neoformans [5]) is on record?
A: Active

Q: And the Activity (Candida albicans [1])?
A: Active

Q: What about the Activity (Cryptococcus neoformans [3]) of the same compound?
A: Active

Q: What does the source list for `COc1cccc(-c2cc(Nc3cc(O)cc(O)c3C(=O)N3Cc4cccnc4C3)n(C)n2)c1`?
A: Activity (Candida albicans [1]): Active; remaining at 1 h, 1 µM [2]: 0%; Activity (Cryptococcus neoformans [3]): Active; half-life at 2 h, 1 µM [4]: 3.44 min

Q: Which Activity (Candida albicans [1]) does the source give for `COc1ccc(Cn2ncc(C)c2Nc2cc(O)cc(O)c2C(=O)N2Cc3ccccc3C2)cc1` here?
A: Active

Q: What about the Activity (Cryptococcus neoformans [3]) of the same compound?
A: Active

Q: What about the Activity (Candida albicans [6]) of the same compound?
A: Active

Q: Which results are given for `Cc1cc(Nc2cc(O)cc(O)c2C(=O)N2Cc3ccccc3C2)n(Cc2ccccc2Cl)n1`?
A: Activity (Candida albicans [1]): Active; Activity (Cryptococcus neoformans [3]): Active; Activity (Candida albicans [6]): Active

Q: Which Activity (Candida albicans [1]) does the source give for `COc1cccc(-c2cc(Nc3cc(O)cc(O)c3C(=O)N3Cc4ccccc4C3)n(C)n2)c1` here?
A: Active

Q: And the remaining at 1 h, 1 µM [2]?
A: 0%

Q: What about the Activity (Cryptococcus neoformans [3]) of the same compound?
A: Active

Q: What about the half-life at 2 h, 1 µM [4] of the same compound?
A: 3.15 min

Q: With `CCN(CC)C(=O)c1c(O)cc(O)cc1Nc1cc(-c2ccccc2)nn1Cc1ccc(OC)cc1` as the compound, how does the EC50 [7] read?
A: > 10 µM

Q: What about the Activity (Candida albicans [1]) of the same compound?
A: Active

Q: What about the Activity (Cryptococcus neoformans [3]) of the same compound?
A: Active

Q: For `COc1cccc(-c2cc(Nc3cc(O)cc(O)c3C(=O)N3Cc4cn[nH]c4C3)n(C)n2)c1`, which Activity (Candida albicans [1]) is on record?
A: Active

Q: And the remaining at 1 h, 1 µM [2]?
A: 7%

Q: What about the Activity (Cryptococcus neoformans [3]) of the same compound?
A: Active

Q: For `COc1ccc(Cn2nc(C)cc2Nc2cc(O)cc(O)c2C(=O)N(C)Cc2ccccc2)cc1`, which EC50 [7] is on record?
A: > 6 µM

Q: What about the Activity (Candida albicans [1]) of the same compound?
A: Active

Q: What about the Activity (Cryptococcus neoformans [3]) of the same compound?
A: Active

Q: What does the source list for `Cn1nc(-c2ccc(OC(F)(F)F)cc2)cc1Nc1cc(O)cc(O)c1C(=O)N1Cc2ccccc2C1`?
A: Activity (Candida albicans [1]): Active; Activity (Cryptococcus neoformans [3]): Active; MIC (Candida albicans [8]): 12.5 µM

Q: With `Cn1nc(-c2ccc(OC(F)(F)F)cc2)cc1Nc1cc(O)cc(O)c1C(=O)N1Cc2cccnc2C1` as the compound, how does the Activity (Candida albicans [1]) read?
A: Active

Q: What about the remaining at 1 h, 1 µM [2] of the same compound?
A: 3.9%

Q: And the Activity (Cryptococcus neoformans [3])?
A: Active

Q: For `CC(C)c1ccc(Cn2nccc2Nc2cc(O)cc(O)c2C(=O)N2Cc3ccccc3C2)cc1`, which Activity (Candida albicans [1]) is on record?
A: Active

Q: What about the remaining at 1 h, 1 µM [2] of the same compound?
A: 1.8%

Q: What about the Activity (Cryptococcus neoformans [3]) of the same compound?
A: Active

Q: What about the half-life at 2 h, 1 µM [4] of the same compound?
A: 3.1 min

Q: What does the source list for `Cn1nc(-c2ccc(C(C)(C)C)cc2)cc1Nc1cc(O)cc(O)c1C(=O)N1Cc2cn[nH]c2C1`?
A: Activity (Candida albicans [1]): Active; remaining at 1 h, 1 µM [2]: 0.5%; Activity (Cryptococcus neoformans [3]): Active; half-life at 2 h, 1 µM [4]: 6.44 min

Q: Which results are given for `COc1ccc(Cn2nc(C3CCCC3)cc2Nc2cc(O)cc(O)c2C(=O)N2Cc3cccnc3C2)cc1`?
A: Activity (Candida albicans [1]): Active; Activity (Cryptococcus neoformans [3]): Active

Q: For `COc1ccc(Cn2nc(-c3ccccc3)cc2Nc2cc(O)cc(O)c2C(=O)N2Cc3ccc(F)cc3C2)cc1`, which Activity (Candida albicans [1]) is on record?
A: Active

Q: What about the Activity (Cryptococcus neoformans [3]) of the same compound?
A: Active

Q: With `COc1ccc(CO\N=C2/C=C/C=C\[C@H]3O[C@@H]3C[C@@H](C)OC(=O)c3c(O)cc(O)cc3C2)cc1` as the compound, how does the Selectivity Index [9] read?
A: > 25

Q: Which Activity (Candida albicans [1]) does the source give for `COc1ccc(Cn2nc(-c3ccccc3)cc2Nc2cc(O)cc(O)c2C(=O)N2Cc3ccc(OCCN(C)C)cc3C2)cc1` here?
A: Active

Q: What about the Activity (Cryptococcus neoformans [3]) of the same compound?
A: Active

Q: For `O=C(c1c(O)cc(O)cc1Nc1ccnn1CC1CCCCC1)N1Cc2cccnc2C1`, which Activity (Candida albicans [1]) is on record?
A: Active

Q: What about the Activity (Cryptococcus neoformans [3]) of the same compound?
A: Active

Q: With `Cc1cccc(-c2cc(Nc3cc(O)cc(O)c3C(=O)N3Cc4cn[nH]c4C3)n(C)n2)c1` as the compound, how does the Activity (Candida albicans [1]) read?
A: Active

Q: And the remaining at 1 h, 1 µM [2]?
A: 1.8%

Q: And the Activity (Cryptococcus neoformans [3])?
A: Active

Q: And the half-life at 2 h, 1 µM [4]?
A: 9.38 min

Q: What does the source list for `O=C(c1c(O)cc(O)cc1Nc1ccnn1Cc1ccccc1)N1Cc2cn[nH]c2C1`?
A: Activity (Candida albicans [1]): Active; Activity (Cryptococcus neoformans [3]): Active

Q: For `Cc1ccc(-c2cc(Nc3cc(O)cc(O)c3C(=O)N3Cc4cccnc4C3)n(C)n2)cc1`, which Activity (Candida albicans [1]) is on record?
A: Active

Q: What about the Activity (Cryptococcus neoformans [3]) of the same compound?
A: Active

Q: With `COc1ccc(Cn2nc(C)cc2Nc2cc(O)cc(O)c2C(=O)N(C)CC2CC2)cc1` as the compound, how does the EC50 [7] read?
A: > 9 µM

Q: And the Activity (Candida albicans [1])?
A: Active

Q: What about the Activity (Cryptococcus neoformans [3]) of the same compound?
A: Active

Q: For `CCc1cc(Nc2cc(O)cc(O)c2C(=O)N2Cc3cccnc3C2)n(Cc2ccc(OC)cc2)n1`, which Activity (Candida albicans [1]) is on record?
A: Active

Q: What about the Activity (Cryptococcus neoformans [3]) of the same compound?
A: Active

Q: Which Activity (Candida albicans [1]) does the source give for `COc1ccc(Cn2nc(C)cc2Nc2cc(O)cc(O)c2C(=O)N2Cc3ccccc3C2)cc1` here?
A: Active

Q: And the Activity (Cryptococcus neoformans [3])?
A: Active

Q: With `Cn1nc(-c2ccc(C(F)(F)F)cc2)cc1Nc1cc(O)cc(O)c1C(=O)N1Cc2cccnc2C1` as the compound, how does the Activity (Candida albicans [1]) read?
A: Active

Q: What about the Activity (Cryptococcus neoformans [3]) of the same compound?
A: Active

Q: With `O=C(c1c(O)cc(O)cc1Nc1ccnn1-c1ccccc1)N1Cc2cn[nH]c2C1` as the compound, how does the Activity (Candida albicans [1]) read?
A: Active

Q: What about the Activity (Cryptococcus neoformans [3]) of the same compound?
A: Active

Q: Which results are given for `COc1ccc(Cn2nc(C)cc2Nc2cc(O)cc(O)c2C(=O)N2Cc3ccc(F)cc3C2)cc1`?
A: Activity (Candida albicans [1]): Active; Activity (Cryptococcus neoformans [3]): Active

Q: Which EC50 [7] does the source give for `COc1ccc(Cn2nc(-c3ccccc3)cc2Nc2cc(O)cc(O)c2C(=O)N(C)CC2CC2)cc1` here?
A: > 9 µM

Q: What about the Activity (Candida albicans [1]) of the same compound?
A: Active

Q: And the Activity (Cryptococcus neoformans [3])?
A: Active

Q: Which Activity (Candida albicans [1]) does the source give for `CC(C)n1nccc1Nc1cc(O)cc(O)c1C(=O)N1Cc2ccccc2C1` here?
A: Active

Q: What about the Activity (Cryptococcus neoformans [3]) of the same compound?
A: Active

Q: With `COc1ccc(-c2cc(Nc3cc(O)cc(O)c3C(=O)N3Cc4cn[nH]c4C3)n(C)n2)cc1` as the compound, how does the Activity (Candida albicans [1]) read?
A: Active

Q: What about the Activity (Cryptococcus neoformans [3]) of the same compound?
A: Active

Q: Which Activity (Candida albicans [1]) does the source give for `COc1ccc(Cn2nc(-c3ccoc3)cc2Nc2cc(O)cc(O)c2C(=O)N2Cc3cccnc3C2)cc1` here?
A: Active

Q: And the Activity (Cryptococcus neoformans [3])?
A: Active

Q: Which results are given for `Cc1ccccc1-c1cc(Nc2cc(O)cc(O)c2C(=O)N2Cc3cccnc3C2)n(C)n1`?
A: Activity (Candida albicans [1]): Active; Activity (Cryptococcus neoformans [3]): Active

Q: With `COc1ccc(Cn2nc(C)cc2Nc2cc(O)cc(O)c2C(=O)N2Cc3ccc(OCCN(C)C)cc3C2)cc1` as the compound, how does the Activity (Candida albicans [1]) read?
A: Active

Q: What about the Activity (Cryptococcus neoformans [3]) of the same compound?
A: Active

Q: Which results are given for `COc1ccc(Cn2nc(C)cc2Nc2cc(O)cc(O)c2C(=O)N2Cc3cccc(F)c3C2)cc1`?
A: Activity (Candida albicans [1]): Active; Activity (Cryptococcus neoformans [3]): Active

Q: With `COc1ccc(Cn2nc(-c3ccoc3)cc2Nc2cc(O)cc(O)c2C(=O)N2Cc3cn[nH]c3C2)cc1` as the compound, how does the Activity (Candida albicans [1]) read?
A: Active

Q: What about the Activity (Cryptococcus neoformans [3]) of the same compound?
A: Active

Q: Which results are given for `COc1ccc(Cn2nc(-c3ccccc3)cc2Nc2cc(O)cc(O)c2C(=O)N2Cc3ccccc3C2)cc1`?
A: Activity (Candida albicans [1]): Active; Activity (Cryptococcus neoformans [3]): Active; Activity (Candida albicans [6]): Active

Q: With `Cn1nc(-c2ccc(C(C)(C)C)cc2)cc1Nc1cc(O)cc(O)c1C(=O)N1Cc2ccccc2C1` as the compound, how does the Activity (Candida albicans [1]) read?
A: Active

Q: And the Activity (Cryptococcus neoformans [3])?
A: Active

Q: With `O=C(c1c(O)cc(O)cc1Nc1ccnn1Cc1ccco1)N1Cc2cn[nH]c2C1` as the compound, how does the Activity (Candida albicans [1]) read?
A: Active

Q: What about the Activity (Cryptococcus neoformans [3]) of the same compound?
A: Active

Q: Which results are given for `O=C(c1c(O)cc(O)cc1Nc1ccnn1CC1CCCCC1)N1Cc2cn[nH]c2C1`?
A: Activity (Candida albicans [1]): Active; Activity (Cryptococcus neoformans [3]): Active

Q: For `Cn1nc(-c2ccc(OC(F)(F)F)cc2)cc1Nc1cc(O)cc(O)c1C(=O)N1Cc2cn[nH]c2C1`, which Activity (Candida albicans [1]) is on record?
A: Active

Q: And the remaining at 1 h, 1 µM [2]?
A: 20.6%

Q: And the Activity (Cryptococcus neoformans [3])?
A: Active

Q: Which results are given for `COc1ccc(Cn2nc(C(C)C)cc2Nc2cc(O)cc(O)c2C(=O)N2Cc3cccnc3C2)cc1`?
A: Activity (Candida albicans [1]): Active; Activity (Cryptococcus neoformans [3]): Active

Q: With `COc1ccc(Cn2nc(C(C)C)cc2Nc2cc(O)cc(O)c2C(=O)N2Cc3cn[nH]c3C2)cc1` as the compound, how does the Activity (Candida albicans [1]) read?
A: Active

Q: And the Activity (Cryptococcus neoformans [3])?
A: Active

Q: With `Cc1ccc(-c2cc(Nc3cc(O)cc(O)c3C(=O)N3Cc4ccccc4C3)n(C)n2)cc1` as the compound, how does the Activity (Candida albicans [1]) read?
A: Active

Q: And the Activity (Cryptococcus neoformans [3])?
A: Active

Q: Which results are given for `COc1ccc(Cn2nc(-c3ccccc3)cc2Nc2cc(O)cc(O)c2C(=O)N2Cc3cccnc3C2)cc1`?
A: Activity (Candida albicans [1]): Active; Activity (Cryptococcus neoformans [3]): Active

Q: Which Activity (Candida albicans [1]) does the source give for `Cn1nc(-c2ccc(C(C)(C)C)cc2)cc1Nc1cc(O)cc(O)c1C(=O)N1Cc2cccnc2C1` here?
A: Active

Q: And the Activity (Cryptococcus neoformans [3])?
A: Active

— ChEMBL document CHEMBL4402526, “Design and Synthesis of Fungal-Selective Resorcylate Aminopyrazole Hsp90 Inhibitors” (J Med Chem, 2020)
